Experimental data taken from the supplement of paper PMC10307832.

Tests used:
Experiment in all cases: relative viability (nuclei count vs DMSO), 5 days (fraction); higher = more cells survive
Vorinostat + OSI-027 = compound: O=C(CCCCCCC(=O)Nc1ccccc1)NO [Vorinostat] + COc1cccc2cc(-c3nc([C@H]4CC[C@H](C(=O)O)CC4)n4ncnc(N)c34)[nH]c12 [OSI-027] (partner 0.5 µM)
In short: (§1)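 Five library-drug doses in √10 steps were combined with a fixed anchor-drug dose, or a single drug was given alone, by pin tool to lung cancer cell lines in 1536-well plates the day after seeding. Nuclei were stained and counted after 5 days. Relative viability is the nuclei count in treated wells over that in vehicle wells, taken as the median of duplicate plates.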

Vorinostat + Navitoclax = compound: O=C(CCCCCCC(=O)Nc1ccccc1)NO [Vorinostat] + CC1(C)CCC(c2ccc(Cl)cc2)=C(CN2CCN(c3ccc(C(=O)NS(=O)(=O)c4ccc(N[C@H](CCN5CCOCC5)CSc5ccccc5)c(S(=O)(=O)C(F)(F)F)c4)cc3)CC2)C1 [Navitoclax] (partner 0.5 µM)
In short: as §1

Vorinostat + Foretinib = compound: O=C(CCCCCCC(=O)Nc1ccccc1)NO [Vorinostat] + COc1cc2c(Oc3ccc(NC(=O)C4(C(=O)Nc5ccc(F)cc5)CC4)cc3F)ccnc2cc1OCCCN1CCOCC1 [Foretinib] (partner 0.25 µM)
In short: as §1

Vorinostat + Olaparib = compound: O=C(CCCCCCC(=O)Nc1ccccc1)NO [Vorinostat] + O=C(c1cc(Cc2n[nH]c(=O)c3ccccc23)ccc1F)N1CCN(C(=O)C2CC2)CC1 [Olaparib] (partner 8 µM)
In short: as §1

Vorinostat + Alpelisib = compound: O=C(CCCCCCC(=O)Nc1ccccc1)NO [Vorinostat] + Cc1nc(NC(=O)N2CCC[C@H]2C(N)=O)sc1-c1ccnc(C(C)(C)C(F)(F)F)c1 [Alpelisib] (partner 2 µM)
In short: as §1

Cell Line | relative viability (Vorinostat + OSI-027; first compound 0.253 µM) | relative viability (Vorinostat + OSI-027; first compound 0.8 µM) | relative viability (Vorinostat + OSI-027; first compound 2.53 µM) | relative viability (Vorinostat + OSI-027; first compound 8 µM) | relative viability (Vorinostat + Navitoclax; first compound 0.253 µM) | relative viability (Vorinostat + Navitoclax; first compound 0.8 µM) | relative viability (Vorinostat + Navitoclax; first compound 2.53 µM) | relative viability (Vorinostat + Navitoclax; first compound 8 µM) | relative viability (Vorinostat + Foretinib; first compound 0.253 µM) | relative viability (Vorinostat + Foretinib; first compound 0.8 µM) | relative viability (Vorinostat + Foretinib; first compound 2.53 µM) | relative viability (Vorinostat + Foretinib; first compound 8 µM) | relative viability (Vorinostat + Olaparib; first compound 0.253 µM) | relative viability (Vorinostat + Olaparib; first compound 0.8 µM) | relative viability (Vorinostat + Olaparib; first compound 2.53 µM) | relative viability (Vorinostat + Olaparib; first compound 8 µM) | relative viability (Vorinostat + Alpelisib; first compound 0.253 µM) | relative viability (Vorinostat + Alpelisib; first compound 0.8 µM) | relative viability (Vorinostat + Alpelisib; first compound 2.53 µM) | relative viability (Vorinostat + Alpelisib; first compound 8 µM)
EMC-BAC-2 | 0.356 | 0.316 | 0.173 | 0.146 | 1.21 | 1.13 | 0.692 | 0.131 | 1.02 | 0.977 | 0.4 | 0.172 | 0.448 | 0.382 | 0.216 | 0.139 | 0.88 | 0.745 | 0.409 | 0.113
SK-MES-1 | 0.72 | 0.664 | 0.199 | 0.149 | 1.51 | 1.18 | 0.494 | 0.162 | 1.14 | 1.04 | 0.778 | 0.249 | 0.84 | 0.774 | 0.327 | 0.181 | 0.948 | 0.904 | 0.437 | 0.144
SW 1573 | 1.1 | 0.633 | 0.183 | 0.051 | 1.12 | 0.891 | 0.349 | 0.0555 | 1.29 | 1.07 | 0.75 | 0.15 | 0.745 | 0.399 | 0.212 | 0.0539 | 1.03 | 0.901 | 0.587 | 0.147
NCI-H1395 | 0.647 | 0.597 | 0.418 | 0.352 | 1.14 | 1.26 | 0.693 | 0.387 | 1.09 | 1.09 | 0.822 | 0.427 | 0.513 | 0.465 | 0.436 | 0.318 | 1.48 | 1.09 | 0.57 | 0.373
NCI-H2347 | 0.363 | 0.382 | 0.149 | 0.164 | 0.933 | 0.714 | 0.238 | 0.16 | 1.02 | 0.84 | 0.587 | 0.198 | 0.575 | 0.633 | 0.401 | 0.241 | 1.11 | 1.08 | 0.526 | 0.221
NCI-H650 | 0.514 | 0.458 | 0.175 | 0.129 | – | – | – | – | 0.998 | 0.907 | 0.213 | 0.151 | 0.375 | 0.275 | 0.121 | 0.129 | 1.43 | 0.933 | 0.191 | 0.146
NCI-H1975 | 0.783 | 0.609 | 0.231 | 0.121 | 1.23 | 0.839 | 0.308 | 0.146 | 0.962 | 0.838 | 0.295 | 0.108 | 0.9 | 0.593 | 0.249 | 0.125 | 0.696 | 0.528 | 0.189 | 0.133
NCI-H3122 | 1.26 | 1.1 | 0.135 | 0.129 | 1.09 | 1.08 | 0.959 | 0.184 | 1.04 | 1.05 | 0.242 | 0.0563 | 0.543 | 0.574 | 0.319 | 0.0668 | 0.768 | 0.811 | 0.393 | 0.208
